The values below come from patent publication US20040116420A1 (priority 2001, published 2004).

Broadly, the IC50 is the concentration needed to halve the response being measured. A word on the EC90: it is the concentration at which the effect reaches the 90% level. Higher therefore signals weaker potency.

One data set addresses T1, HSV-1 protease (Human herpesvirus 1, UniProt P10210).
T1 construct: 6xHis (N); made in house; host or cells: baculovirus expression system
Put plainly: Enzymatic assay for HSV-1 protease (assembly) inhibitor, fluorescence polarization. The format is biochemical. Particulars: read-out: HSV-1 Enzyme inhibition IC50. In outline:
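His6-tagged HSV-1 UL26 protease, baculovirus-expressed, preincubated 30 min at RT with compound in 1 M citrate/phosphate buffer pH 7.4 with 20% glycerol and 2 mM TCEP. A biotin-HTYLQA*SERFRIK-DTAF substrate was then cleaved for 60 min at RT, stopped with avidin, and read by fluorescence polarization versus no-inhibitor control.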

The next data set relates to Vero cells. Put plainly: Cytotoxicity, Vero cells, Alamar Blue. The format is cell-based. To be noted: 25 μM, 20 hours. In outline:
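Overnight-seeded Vero cells were exposed to 25 μM compound in 2% FBS-DMEM for 20 h at 37 °C, 5% CO2. Alamar Blue was then added for about 6 h. The absorbance ratio relative to compound-free control gave the living-cell ratio.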
(In general: The colour change of resazurin is a common sign of viable cells or microbes.)

A further data set has as its system HSV-1. Put plainly: Antiviral activity, HSV-1 in Vero cells, plaque method. The format is cell-based. To be noted: 90% inhibition of plaque formation. In outline: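 HSV-1 (50,000 pfu in 2% FBS-DMEM) was added to Vero cells and removed, then the compound was applied in 2% FBS-DMEM for 20 h at 37° C, 5% CO2. After a freeze-thaw, virus yield in the medium was titred by plaque assay. EC90 is the concentration giving 90% plaque reduction versus the compound-free control.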

[1] abbreviates: Human alphaherpesvirus 1, 20 hours.

T1 sequence (P10210 1-247): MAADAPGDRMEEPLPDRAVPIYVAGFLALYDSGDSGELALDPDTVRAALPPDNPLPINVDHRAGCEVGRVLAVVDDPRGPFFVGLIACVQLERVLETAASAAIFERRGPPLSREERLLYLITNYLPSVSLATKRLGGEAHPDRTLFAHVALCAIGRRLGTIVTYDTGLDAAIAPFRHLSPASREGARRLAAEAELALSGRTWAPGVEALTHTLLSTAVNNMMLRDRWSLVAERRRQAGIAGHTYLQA

Take `Cc1c(NC(=O)OC(C)(C)C)ccc2nc(N[C@@H](CCc3ccccc3)C(=O)N(C)CCc3cccnc3)oc(=O)c12` [Compound No.70, (5-Methyl-2-{1S-[methyl-(2-pyridin-3-yl-ethyl)-carbamoyl]-3-phenyl-propylamino}-4-oxo-4H-benzo[d][1,3]oxazin-6-yl)-carbamic acid tert-butyl ester]: the IC50 at HSV-1 protease was found to be 900 nM. In the data set with Vero cells, the “Cell viability (% of control)” value stood at 48.0%. In addition, in the data set on HSV-1 (setting [1]), the EC90 is less than 3200 nM.

On to `Cc1c(NC(=O)OC(C)(C)C)ccc2nc(N(C)[C@@H](C)C(=O)NCc3ccccn3)oc(=O)c12` [Compound No.71, [5-Methyl-2-(methyl-{1S-[(pyridin-2-ylmethyl)-carbamoyl]-ethyl}-amino)-4-oxo-4H-benzo[d][1,3]oxazin-6-yl]-carbamic acid tert-butyl ester], for which, on HSV-1 protease, the concentration for half-maximal inhibition (IC50) was 800 nM. In the data set on Vero cells, the “Cell viability (% of control)” value is listed as 107.0%. In the data set on HSV-1 (setting [1]), this compound gave a concentration for an effect of 90% (EC90) greater than 12500 nM.

On to `Cc1c(NC(=O)OC(C)(C)C)ccc2nc(N(C)[C@@H](C)C(=O)NCc3cccnc3)oc(=O)c12` [Compound No.72, [5-Methyl-2-(methyl-{1S-[(pyridin-3-ylmethyl)-carbamoyl]-ethyl}-amino)-4-oxo-4H-benzo[d][1,3]oxazin-6-yl]-carbamic acid tert-butyl ester], for which the IC50 at HSV-1 protease amounted to 1100 nM. Moreover, the “Cell viability (% of control)” value with Vero cells worked out at 90.7%. The same compound had a 90% effect concentration (EC90) in the data set with HSV-1 (setting [1]) greater than 12500 nM.

As to `Cc1c(NC(=O)OC(C)(C)C)ccc2nc(N(C)[C@@H](C)C(=O)NCc3ccncc3)oc(=O)c12` [Compound No.73, [5-Methyl-2-(methyl-{1S-[(pyridin-4-ylmethyl)-carbamoyl]-ethyl}-amino)-4-oxo-4H-benzo[d][1,3]oxazin-6-yl]-carbamic acid tert-butyl ester], the half-maximal inhibitory concentration (IC50) on HSV-1 protease worked out at 1000 nM. Further, in the data set on Vero cells, the “Cell viability (% of control)” value was found to be 79.8%. In the data set with HSV-1 (setting [1]), this compound returned an EC90 greater than 12500 nM.

In the case of `Cc1c(NC(=O)OC(C)(C)C)ccc2nc(N(C)[C@@H](C)C(=O)NCCc3ccccn3)oc(=O)c12` [Compound No.74, (5-Methyl-2-{methyl-[1S-(2-pyridin-2-ylethylcarbamoyl)-ethyl]-amino}-4-oxo-4H-benzo[d][1,3]oxazin-6-yl)-carbamic acid tert-butyl ester], the IC50 at HSV-1 protease turned out to be 1500 nM. In addition, the “Cell viability (% of control)” value with Vero cells was 95.3%. In the data set with HSV-1 (setting [1]), this compound yielded a concentration for an effect of 90% (EC90) greater than 12500 nM.

Take `Cc1c(NC(=O)OC(C)(C)C)ccc2nc(N(C)[C@@H](C)C(=O)N(C)Cc3ccccn3)oc(=O)c12` [Compound No.75, (5-Methyl-2-{methyl-[1S-(methyl-pyridin-2-ylmethyl-carbamoyl)-ethyl]-amino}-4-oxo-4H-benzo[d][1,3]oxazin-6-yl)-carbamic acid tert-butyl ester]: the half-maximal inhibitory concentration (IC50) on HSV-1 protease stood at 2200 nM. Moreover, in the data set with Vero cells, the “Cell viability (% of control)” value was found to be 93.1%. The EC90 in the data set with HSV-1 (setting [1]) is greater than 12500 nM.

On to `Cc1c(NC(=O)OC(C)(C)C)ccc2nc(N(C)[C@@H](C)C(=O)N(C)CCc3ccccn3)oc(=O)c12` [Compound No.76, [5-Methyl-2-(methyl-{1S-[methyl-(2-pyridin-2-yl-ethyl)-carbamoyl]-ethyl}-amino)-4-oxo-4H-benzo[d][1,3]oxazin-6-yl]-carbamic acid tert-butyl ester], for which the half-maximal inhibitory concentration (IC50) on HSV-1 protease was found to be 2100 nM. Besides, the “Cell viability (% of control)” value with Vero cells turned out to be 87.9%. The same compound showed an EC90 with HSV-1 (setting [1]) greater than 12500 nM.

With `Cc1c(NC(=O)OC(C)(C)C)ccc2nc(N(C)[C@@H](C)C(=O)N(C)CCc3cccnc3)oc(=O)c12` [Compound No.77, [5-Methyl-2-(methyl-{1S-[methyl-(2-pyridin-3-yl-ethyl)-carbamoyl]-ethyl}-amino)-4-oxo-4H-benzo[d][1,3]oxazin-6-yl]-carbamic acid tert-butyl ester], the IC50 at HSV-1 protease was 1800 nM. Moreover, the “Cell viability (% of control)” value in the data set with Vero cells is 94.4%. This compound registered an EC90 with HSV-1 (setting [1]) greater than 12500 nM.

As to `Cc1c(NC(=O)OC(C)(C)C)ccc2nc(N(C)[C@@H](C)C(=O)N(C)CCc3ccncc3)oc(=O)c12` [Compound No.78, [5-Methyl-2-(methyl-{1S-[methyl-(2-pyridin-4-yl-ethyl)-carbamoyl]-ethyl}-amino)-4-oxo-4H-benzo[d][1,3]oxazin-6-yl]-carbamic acid tert-butyl ester], the 50% inhibitory concentration (IC50) at HSV-1 protease stood at 1400 nM. Further, the “Cell viability (% of control)” value in the data set on Vero cells worked out at 90.7%. The EC90 in the data set with HSV-1 (setting [1]) is greater than 12500 nM.

Turning to `Cc1c(NC(=O)OC(C)(C)C)ccc2nc(N(C)[C@@H](Cc3ccccc3)C(=O)NCc3cccnc3)oc(=O)c12` [Compound No.79, [5-Methyl-2-(methyl-{2-phenyl-1S-[(pyridin-3-ylmethyl)-carbamoyl]-ethyl}-amino)-4-oxo-4H-benzo[d][1,3]oxazin-6-yl]-carbamic acid tert-butyl ester], the IC50 at HSV-1 protease amounted to 1000 nM. Moreover, in the data set with Vero cells, the “Cell viability (% of control)” value worked out at 38.5%. This compound also registered a 90% effect concentration (EC90) with HSV-1 (setting [1]) of 6000 nM.

`Cc1c(NC(=O)OC(C)(C)C)ccc2nc(N(C)[C@@H](Cc3ccccc3)C(=O)NCc3ccncc3)oc(=O)c12` [Compound No.80, [5-Methyl-2-(methyl-{2-phenyl-1S-[(pyridin-4-ylmethyl)-carbamoyl]-ethyl}-amino)-4-oxo-4H-benzo[d][1,3]oxazin-6-yl]-carbamic acid tert-butyl ester]: the half-maximal inhibitory concentration (IC50) at HSV-1 protease worked out at 900 nM. In addition, in the data set on Vero cells, the “Cell viability (% of control)” value is 48.0%. In the data set on HSV-1 (setting [1]), this compound registered a concentration for an effect of 90% (EC90) of 5900 nM.

Consider `Cc1c(NC(=O)OC(C)(C)C)ccc2nc(N(C)[C@@H](Cc3ccccc3)C(=O)NCCc3ccccn3)oc(=O)c12` [Compound No.81, (5-Methyl-2-{methyl-[2-phenyl-1S-(2-pyridin-2-yl-ethylcarbamoyl)-ethyl]-amino}-4-oxo-4H-benzo[d][1,3]oxazin-6-yl)-carbamic acid tert-butyl ester], for which, on HSV-1 protease, the concentration for half-maximal inhibition (IC50) was found to be 1700 nM. For the same compound, the “Cell viability (% of control)” value in the data set with Vero cells amounted to 49.7%. Besides, in the data set with HSV-1 (setting [1]), the EC90 was 9500 nM.

As to `Cc1c(NC(=O)OC(C)(C)C)ccc2nc(N(C)[C@@H](Cc3ccccc3)C(=O)N(C)Cc3ccccn3)oc(=O)c12` [Compound No.82, (5-Methyl-2-{methyl-[1S-(methyl-pyridin-2-ylmethyl-carbamoyl)-2-phenyl-ethyl]-amino}-4-oxo-4H-benzo[d][1,3]oxazin-6-yl)-carbamic acid tert-butyl ester], the concentration for half-maximal inhibition (IC50) at HSV-1 protease came to 1500 nM. The “Cell viability (% of control)” value in the data set with Vero cells is given as 61.6%. The compound also gave a concentration for an effect of 90% (EC90) in the data set on HSV-1 (setting [1]) of 10800 nM.

`Cc1c(NC(=O)OC(C)(C)C)ccc2nc(N(C)[C@@H](Cc3ccccc3)C(=O)N(C)CCc3ccccn3)oc(=O)c12` [Compound No.83, [5-Methyl-2-(methyl-{1S-[methyl-(2-pyridin-2-yl-ethyl)carbamoyl]-2-phenyl-ethyl}-amino)-4-oxo-4H-benzo[d][1,3]oxazin-6-yl]-carbamic acid tert-butyl ester]: at HSV-1 protease, the half-maximal inhibitory concentration (IC50) stood at 2600 nM. In the data set with Vero cells, the “Cell viability (% of control)” value came out at 66.6%. It took 11500 nM to reach the 90% level with HSV-1 (setting [1]) (EC90).

For `Cc1c(NC(=O)OC(C)(C)C)ccc2nc(N(C)[C@@H](Cc3ccccc3)C(=O)N(C)CCc3cccnc3)oc(=O)c12` [Compound No.84, [5-Methyl-2-(methyl-{1S-[methyl-(2-pyridin-3-yl-ethyl)-carbamoyl]-2-phenyl-ethyl}-amino)-4-oxo-4H-benzo[d][1,3]oxazin-6-yl]-carbamic acid tert-butyl ester], the IC50 on HSV-1 protease came out at 1700 nM. Further, the “Cell viability (% of control)” value in the data set on Vero cells is listed as 37.6%. For the same compound, the 90% effect concentration (EC90) in the data set on HSV-1 (setting [1]) is 11000 nM.

Consider `Cc1c(NC(=O)OC(C)(C)C)ccc2nc(N(C)[C@@H](Cc3ccccc3)C(=O)N(C)CCc3ccncc3)oc(=O)c12` [Compound No.85, [5-Methyl-2-(methyl-{1S-[methyl-(2-pyridin-4-yl-ethyl)-carbamoyl]-2-phenyl-ethyl}-amino)-4-oxo-4H-benzo[d][1,3]oxazin-6-yl]-carbamic acid tert-butyl ester], for which, on HSV-1 protease, the IC50 was determined as 2300 nM. Besides, the “Cell viability (% of control)” value with Vero cells was 60.7%. This compound returned an EC90 in the data set with HSV-1 (setting [1]) of 11700 nM.

As for `Cc1c(NC(=O)OC(C)(C)C)ccc2nc(N3CCC[C@H]3C(=O)NCc3ccccn3)oc(=O)c12` [Compound No.86, (5-Methyl-4-oxo-2-{2S-[(pyridin-2-ylmethyl)-carbamoyl]-pyrrolidin-1-yl}-4H-benzo[d][1,3]oxazin-6-yl)-carbamic acid tert-butyl ester], the IC50 on HSV-1 protease was found to be 1100 nM. In addition, the “Cell viability (% of control)” value in the data set with Vero cells was determined as 94.6%. In addition, the EC90 in the data set on HSV-1 (setting [1]) is greater than 12500 nM.

Turning to `Cc1c(NC(=O)OC(C)(C)C)ccc2nc(N3CCC[C@H]3C(=O)NCc3cccnc3)oc(=O)c12` [Compound No.87, (5-Methyl-4-oxo-2-{2S-[(pyridin-3-ylmethyl)-carbamoyl]-pyrrolidin-1-yl}-4H-benzo[d][1,3]oxazin-6-yl)-carbamic acid tert-butyl ester], at HSV-1 protease, the IC50 is 1700 nM. For the same compound, the “Cell viability (% of control)” value with Vero cells worked out at 92.4%. Besides, in the data set on HSV-1 (setting [1]), the 90% effect concentration (EC90) was greater than 12500 nM.

Turning to `Cc1c(NC(=O)OC(C)(C)C)ccc2nc(N3CCC[C@H]3C(=O)NCc3ccncc3)oc(=O)c12` [Compound No.88, (5-Methyl-4-oxo-2-{2S-[(pyridin-4-ylmethyl)-carbamoyl]-pyrrolidin-1-yl}-4H-benzo[d][1,3]oxazin-6-yl)-carbamic acid tert-butyl ester], on HSV-1 protease, the IC50 amounted to 2700 nM. Further, the “Cell viability (% of control)” value in the data set with Vero cells was 74.1%. The EC90 with HSV-1 (20 hours) was greater than 12500 nM.
